Experimental data as given in the supplement of paper PMC10307832.

Legend:
Test in all cases: relative viability (nuclei count vs DMSO), 5 days (fraction); higher = more cells survive
[1] = compound: Cc1nc(C(=O)NCC(=O)O)c(O)c2ccc(Oc3ccccc3)cc12 [FG-4592] + Cc1cc(Nc2cc(N3CCN(C)CC3)nc(Sc3ccc(NC(=O)C4CC4)cc3)n2)n[nH]1 [Tozasertib] (partner 0.1 µM)
How it was run: (§1)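 Values are medians from duplicate plates. Each reflects relative viability, defined as the nuclei count of treated wells over that of vehicle wells. Lung cancer cell lines in 1536-well plates were pin-tool dosed one day after seeding with one drug alone or with a fixed anchor-drug dose plus five library-drug doses (not always all listed) in √10 steps, then fixed, stained and imaged at 4× after 5 days.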

[2] = compound: Cc1nc(C(=O)NCC(=O)O)c(O)c2ccc(Oc3ccccc3)cc12 [FG-4592] + O=C(c1cc(Cc2n[nH]c(=O)c3ccccc23)ccc1F)N1CCN(C(=O)C2CC2)CC1 [Olaparib] (partner 8 µM)
How it was run: as §1

[3] = compound: Cc1nc(C(=O)NCC(=O)O)c(O)c2ccc(Oc3ccccc3)cc12 [FG-4592] + CCNC(=O)c1noc(-c2cc(C(C)C)c(O)cc2O)c1-c1ccc(CN2CCOCC2)cc1 [Luminespib] (partner 0.01 µM)
How it was run: as §1

[4] = compound: CC1=CC(=C(N1C2=CC=C(C=C2)Cl)C)C(=O)CN3CCCCC3 [IU1-47] + O=C(CCCCCCC(=O)Nc1ccccc1)NO [Vorinostat] (partner 1 µM)
How it was run: as §1

Cell Line | relative viability ([1]; first compound 0.08 µM) | relative viability ([1]; first compound 0.8 µM) | relative viability ([1]; first compound 2.53 µM) | relative viability ([1]; first compound 8 µM) | relative viability ([2]; first compound 0.08 µM) | relative viability ([2]; first compound 0.253 µM) | relative viability ([2]; first compound 0.8 µM) | relative viability ([2]; first compound 2.53 µM) | relative viability ([2]; first compound 8 µM) | relative viability ([3]; first compound 0.08 µM) | relative viability ([3]; first compound 0.8 µM) | relative viability ([3]; first compound 2.53 µM) | relative viability ([3]; first compound 8 µM) | relative viability ([4]; first compound 0.08 µM) | relative viability ([4]; first compound 0.253 µM) | relative viability ([4]; first compound 0.8 µM) | relative viability ([4]; first compound 2.53 µM) | relative viability ([4]; first compound 8 µM) | relative viability ([1]; first compound 0.253 µM) | relative viability ([3]; first compound 0.253 µM)
NCI-H2405 | 0.631 | 0.763 | 0.735 | 0.757 | 0.752 | 0.772 | 0.948 | 0.809 | 0.859 | 0.577 | 0.675 | 0.691 | 0.658 | 1.06 | 1.08 | 1.14 | 0.925 | 1.01 | – | –
NCI-H1755 | 0.56 | 0.568 | 0.678 | 0.655 | 0.873 | 0.837 | 0.762 | 0.907 | 0.799 | 0.417 | 0.331 | 0.492 | 0.517 | 0.82 | 0.895 | 0.799 | 0.828 | 0.668 | 0.51 | 0.295
LOU-NH91 | 0.709 | 0.696 | 0.634 | 0.717 | 0.93 | 0.85 | 0.902 | 0.959 | 0.953 | 0.275 | 0.299 | 0.325 | 0.367 | 1.09 | 1.04 | 0.912 | 1.04 | 0.82 | 0.669 | 0.342
NCI-H3122 | 0.38 | 0.348 | 0.418 | 0.35 | 0.637 | 0.606 | 0.681 | 0.656 | 0.661 | 0.079 | 0.0631 | 0.092 | 0.0857 | 1.29 | 1.15 | 1.17 | 1.06 | 1.01 | 0.361 | 0.108
HCC-827 | 0.385 | 0.369 | 0.457 | 0.406 | 0.591 | 0.624 | 0.625 | 0.705 | 0.729 | 0.643 | 0.702 | 0.657 | 0.591 | 0.966 | 1.08 | 1.02 | 0.879 | 0.558 | 0.372 | 0.587
SK-LU-1 | 0.317 | 0.295 | 0.31 | 0.273 | 0.322 | 0.396 | 0.491 | 0.444 | 0.472 | 0.184 | 0.187 | 0.223 | 0.202 | 0.804 | 0.818 | 0.768 | 0.815 | 0.585 | 0.331 | 0.174
NCI-H1975 | 0.772 | 0.868 | 0.783 | 0.683 | 0.786 | 0.747 | 0.883 | 0.849 | 0.721 | 0.305 | 0.2 | 0.187 | 0.0934 | 0.733 | 0.756 | 0.795 | 0.664 | 0.594 | 0.78 | 0.244
NCI-H1651 | 0.773 | 0.742 | 0.629 | 0.569 | 0.182 | 0.175 | 0.196 | 0.17 | 0.176 | 0.9 | 0.789 | 0.836 | 0.867 | 0.559 | 0.558 | 0.556 | 0.531 | 0.495 | 0.653 | 0.767
